Laboratory results published in US5863916A, “8-aza, 6-aza and 6,8-diaza-1,4-dihydroquinoxaline-2,3-diones and the use thereof as antagonists for the glycine/NMDA receptor” (priority 1997, dated 1999).

What was measured:
log P (literature) = format: physicochemical; conditions: from benzene to pyridine N-oxide
[1] = test system: strychnine-insensitive glycine sites associated with NMDA receptors; conditions: cited from earlier work

Structure (SMILES)	difference in log P (log P (literature))	inhibition of [3H]glycine binding [1]
[O-][n+]1ccccc1 [pyridine N-oxide]	-3.84	–
Oc1nc2cccnc2nc1O [pyrido (2,3-b)pyrazine-2,3-diol]	–	active inhibitor
